Data taken from patent publication US8258114B2, “Modulation of glucose-6-phosphatase translocase expression” (Isis Pharmaceuticals, Inc., priority 2004, dated 2012).
Oligonucleotides are written 5' to 3', each unit as a sugar letter and its base; * is a phosphorothioate linkage, no mark a phosphodiester; rarer units and linkages stand in square brackets, end groups in braces. Plain capitals give the bases only. e = 2'-O-(2-methoxyethyl) (MOE); [5mC] = 5-methylcytosine; d = 2'-deoxy (DNA)

System: mouse glucose-6-phosphatase translocase mRNA
Assay: Antisense inhibition of mouse glucose-6-phosphatase translocase mRNA in primary mouse hepatocytes, 150 nM, LIPOFECTIN (Table 22)
Assay type: cell-based
Settings: real-time PCR
Procedure: Primary mouse hepatocytes were prepared from CD-1 mice purchased from Charles River Labs. Primary mouse hepatocytes were routinely cultured in Hepatocyte Attachment Media supplemented with 10% fetal bovine serum (Invitrogen Life Technologies, Carlsbad, Calif.), 250 nM dexamethasone, and 10 nM bovine insulin (Sigma-Aldrich, St. Louis, Mo.). Cells were seeded into 96-well plates (Falcon-Primaria #353872, BD Biosciences, Bedford, Mass.) at a density of approximately 4,000-6,000 cells/well for use in oligomeric compound transfection experiments.
When cells reached 65-75% confluency, they were treated with oligonucleotide. Oligonucleotide was mixed with LIPOFECTIN™ Invitrogen Life Technologies, Carlsbad, Calif.) in Opti-MEM™-1 reduced serum medium (Invitrogen Life Technologies, Carlsbad, Calif.) to achieve the desired concentration of oligonucleotide and a LIPOFECTIN™ concentration of 2.5 or 3 μg/mL per 100 nM oligonucleotide. This transfection mixture was incubated at room temperature for approximately 0.5 hours. For cells grown in 96-well plates, wells were washed once with 100 μL OPTI-MEM™-1 and then treated with 130 μL of the transfection mixture. Cells grown in 24-well plates or other standard tissue culture plates are treated similarly, using appropriate volumes of medium and oligonucleotide. Cells are treated and data are obtained in duplicate or triplicate. After approximately 4-7 hours of treatment at 37° C., the medium containing the transfection mixture was replaced with fresh culture medium. Cells were harvested 16-24 hours after oligonucleotide treatment.
Quantitation of glucose 6-phosphatase translocase mRNA levels was accomplished by real-time quantitative PCR using the ABI PRISM™ 7600, 7700, or 7900 Sequence Detection System (PE-Applied Biosystems, Foster City, Calif.) according to manufacturer's instructions.
Prior to quantitative PCR analysis, primer-probe sets specific to the target gene being measured were evaluated for their ability to be “multiplexed” with a GAPDH amplification reaction. After isolation the RNA is subjected to sequential reverse transcriptase (RT) reaction and real-time PCR, both of which are performed in the same well. RT and PCR reagents were obtained from Invitrogen Life Technologies (Carlsbad, Calif.). […] The RT reaction was carried out by incubation for 30 minutes at 48° C. Following a 10 minute incubation at 95° C. to activate the PLATINUM® Taq, 40 cycles of a two-step PCR protocol were carried out: 95° C. for 15 seconds (denaturation) followed by 60° C. for 1.5 minutes (annealing/extension).
Gene target quantities obtained by RT, real-time PCR were normalized using either the expression level of GAPDH, a gene whose expression is constant, or by quantifying total RNA using RiboGreen™ (Molecular Probes, Inc. Eugene, Oreg.). GAPDH expression was quantified by RT, real-time PCR, by being run simultaneously with the target, multiplexing, or separately. Total RNA was quantified using RiboGreen™ RNA quantification reagent (Molecular Probes, Inc. Eugene, Oreg.).
A series of oligomeric compounds was designed to target different regions of mouse glucose-6-phosphatase translocase, using published sequences cited in Table 1. All compounds in Table 22 are chimeric oligonucleotides (“gapmers”) 20 nucleotides in length, composed of a central “gap” region consisting of 10 2′-deoxynucleotides, which is flanked on both sides (5′ and 3′) by five-nucleotide “wings”. The wings are composed of 2′-O-(2-methoxyethyl) nucleotides, also known as 2′-MOE nucleotides. The internucleoside (backbone) linkages are phosphorothioate throughout the oligonucleotide. All cytidine residues are 5-methylcytidines. The compounds were analyzed for their effect on gene target mRNA levels by quantitative real-time PCR as described in other examples herein, using the following primer-probe set designed to hybridize to mouse glucose-6-phosphatase translocase: • forward primer: […]

Substance | % Inhib of mouse glucose-6-phosphatase translocase mRNA levels
145690 (antisense e[5mC]*eT*e[5mC]*e[5mC]*eG*dA*d[5mC]*d[5mC]*dT*d[5mC]*dG*dA*dG*dG*dG*e[5mC]*eA*e[5mC]*eT*eG) [compound 145690] | 56%
145691 (antisense eT*eG*eT*e[5mC]*eT*dG*dA*d[5mC]*dA*dG*dG*dT*dA*dA*d[5mC]*e[5mC]*eA*eG*e[5mC]*eT) [compound 145691] | 30%
145692 (antisense eG*e[5mC]*eT*eG*e[5mC]*d[5mC]*dA*dT*d[5mC]*d[5mC]*d[5mC]*dA*dG*d[5mC]*d[5mC]*eA*eT*e[5mC]*eA*eT) [compound 145692] | 65%
145693 (eG*eG*eA*eA*eG*dA*dG*dA*dT*dA*d[5mC]*dG*dT*dG*dG*eA*eT*eG*e[5mC]*eT; antisense) [compound 145693] | 0%
145694 (eA*eG*eT*e[5mC]*eA*d[5mC]*dT*dG*dG*dT*d[5mC]*dA*d[5mC]*d[5mC]*dG*eT*eT*eA*e[5mC]*eT; antisense) [compound 145694] | 23%
145695 (e[5mC]*eA*eA*eT*eG*dG*dG*dA*d[5mC]*d[5mC]*dA*dT*dA*dA*dG*eA*eA*eG*eA*eG; antisense) [compound 145695] | 24%
145696 (e[5mC]*eT*e[5mC]*e[5mC]*eA*dA*dA*d[5mC]*dA*dA*dG*dG*d[5mC]*dA*dA*eT*eG*eG*eG*eA; antisense) [compound 145696] | 37%
145697 (eT*eG*eG*e[5mC]*eT*dA*dT*dG*dA*d[5mC]*dT*d[5mC]*d[5mC]*dA*dA*eA*e[5mC]*eA*eA*eG; antisense) [compound 145697] | 45%
145698 (e[5mC]*e[5mC]*eA*e[5mC]*eA*dA*dT*dA*dG*d[5mC]*dA*dT*dG*dA*dG*eA*eG*eG*eT*eT; antisense) [compound 145698] | 33%
145699 (eT*e[5mC]*e[5mC]*eA*e[5mC]*d[5mC]*d[5mC]*dA*d[5mC]*dA*dT*dT*dG*dG*d[5mC]*e[5mC]*eA*eT*eA*eA; antisense) [compound 145699] | 41%
145701 (eA*eG*eT*eG*e[5mC]*dT*dT*dG*dG*d[5mC]*dA*dA*dT*dG*dG*eT*eG*e[5mC]*eT*eG; antisense) [compound 145701] | 54%
145703 (eA*e[5mC]*e[5mC]*eA*e[5mC]*dT*dT*d[5mC]*dT*dG*d[5mC]*d[5mC]*dA*d[5mC]*d[5mC]*e[5mC]*eA*eG*eA*eA; antisense) [compound 145703] | 42%
145704 (eG*e[5mC]*eT*eG*eG*d[5mC]*dT*d[5mC]*d[5mC]*dA*d[5mC]*dA*dA*dA*d[5mC]*e[5mC]*eA*e[5mC]*eT*eT; antisense) [compound 145704] | 54%
145705 (e[5mC]*eT*eT*eG*eG*dT*dG*d[5mC]*dG*dG*dA*dT*dA*dT*dT*eT*e[5mC]*eG*eA*eA; antisense) [compound 145705] | 49%
145707 (eT*eG*eG*eA*eT*dA*d[5mC]*dT*d[5mC]*dG*dG*d[5mC]*d[5mC]*d[5mC]*dA*eT*e[5mC]*eT*eT*eG; antisense) [compound 145707] | 56%
145708 (eG*eG*eA*e[5mC]*eT*d[5mC]*dG*dA*dT*dT*d[5mC]*dA*d[5mC]*dT*d[5mC]*eT*e[5mC]*e[5mC]*e[5mC]*eT; antisense) [compound 145708] | 48%

Substance | % Inhib of mouse glucose-6-phosphatase translocase mRNA levels
145709 (eG*eG*eG*eA*eT*dG*d[5mC]*dT*d[5mC]*d[5mC]*dA*dT*dA*dG*d[5mC]*eG*eA*eG*eG*eA; antisense) [compound 145709] | 14%
145710 (e[5mC]*e[5mC]*eT*eG*e[5mC]*d[5mC]*dA*dG*dT*dA*dA*dG*dG*d[5mC]*dT*eG*e[5mC]*eA*eG*eT; antisense) [compound 145710] | 13%
145711 (eG*eA*eG*eA*eG*dA*d[5mC]*dA*dG*dT*dG*dG*dA*dG*dA*e[5mC]*eA*e[5mC]*eA*eG; antisense) [compound 145711] | 33%
145712 (eT*eG*eG*eA*eG*dG*dT*dT*d[5mC]*dA*dG*dA*dG*dA*dG*eA*e[5mC]*eA*eG*eT; antisense) [compound 145712] | 42%
145713 (eG*eT*eA*eA*e[5mC]*dT*dT*dG*d[5mC]*dA*dG*d[5mC]*dA*d[5mC]*d[5mC]*eA*eT*eG*eG*eA; antisense) [compound 145713] | 63%
145714 (eG*e[5mC]*e[5mC]*eA*e[5mC]*dT*dG*dG*dT*dA*dA*d[5mC]*dT*dT*dG*e[5mC]*eA*eG*e[5mC]*eA; antisense) [compound 145714] | 66%
145715 (eA*eG*eG*eA*eG*dT*dT*dG*d[5mC]*d[5mC]*dT*dG*dT*d[5mC]*dT*eG*e[5mC]*e[5mC]*eA*eG; antisense) [compound 145715] | 50%
145716 (e[5mC]*e[5mC]*e[5mC]*eT*eG*dA*dA*dT*dT*d[5mC]*dA*dG*dG*dA*dG*eT*eT*eG*e[5mC]*e[5mC]; antisense) [compound 145716] | 52%
145717 (eT*eA*e[5mC]*eT*e[5mC]*dA*d[5mC]*dT*dA*dG*dG*dA*dG*dA*dT*e[5mC]*eA*eG*eG*eA; antisense) [compound 145717] | 52%
145718 (e[5mC]*eA*eA*eT*eT*dT*dT*dG*d[5mC]*d[5mC]*d[5mC]*d[5mC]*d[5mC]*dT*dG*e[5mC]*e[5mC]*eA*eA*eG; antisense) [compound 145718] | 26%
145719 (eG*eA*eG*eT*eG*dG*dT*dG*dG*dA*d[5mC]*dT*d[5mC]*d[5mC]*dT*e[5mC]*eT*e[5mC]*e[5mC]*eT; antisense) [compound 145719] | 47%
145720 (TCAAATCTAGCTTTATTCGA; 2'-MOE wings and deoxy gap, wing lengths and linkages not given here) [compound 145720] | 11%
145721 (eG*eG*e[5mC]*eT*eG*dT*dG*dG*dG*dT*d[5mC]*d[5mC]*d[5mC]*d[5mC]*dG*eA*eA*e[5mC]*eG*eA; antisense) [compound 145721] | 0%
145722 (e[5mC]*eA*eG*eT*eG*dT*d[5mC]*d[5mC]*d[5mC]*dT*dG*d[5mC]*dG*dA*d[5mC]*eA*eT*e[5mC]*eA*eG; antisense) [compound 145722] | 8%
145723 (eG*e[5mC]*e[5mC]*eG*e[5mC]*d[5mC]*dT*dT*d[5mC]*dT*dG*dG*dA*d[5mC]*dA*eA*eT*e[5mC]*eA*eT; antisense) [compound 145723] | 0%
145724 (eG*eG*e[5mC]*eT*e[5mC]*dT*dT*dT*dA*dT*dA*dG*d[5mC]*d[5mC]*dG*e[5mC]*e[5mC]*eT*eT*e[5mC]; antisense) [compound 145724] | 0%
